In ChEMBL document CHEMBL1201862, “PubChem BioAssay data set” (2004):
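Tested at 5 concentrations; 48 h exposure; 96-well plates; endpoints linearly interpolated, else capped at highest concentration. GI50 = concentration required for 50% inhibition of growth.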 The source made the active and inactive calls. Cut-off read from the data, not from the text of the source: active = GI50 up to about 1.1 µM and inactive = higher.

Experiments:
Assay in all cases: NCI-60 cell line screen, 48 h
TK-10 = tested on: TK-10
K562 = tested on: K562
HCC 2998 = tested on: HCC 2998
MDA-MB-435 = tested on: MDA-MB-435
M14 = tested on: M14
OVCAR-5 = tested on: OVCAR-5
NCI/ADR-RES = tested on: NCI/ADR-RES
HT-29 = tested on: HT-29
OVCAR-8 = tested on: OVCAR-8
NCI-H522 = tested on: NCI-H522
A549 = tested on: A549
HOP-62 = tested on: HOP-62
SNB-19 = tested on: SNB-19
HCT-15 = tested on: HCT-15
UO-31 = tested on: UO-31
MCF7 = tested on: MCF7
U-251 = tested on: U-251
HL-60 = tested on: HL-60
MDA-N = tested on: MDA-N
SR = tested on: SR

Structure (SMILES) | GI50 (TK-10) | GI50 (K562) | GI50 (HCC 2998) | GI50 (MDA-MB-435) | GI50 (M14) | GI50 (OVCAR-5) | GI50 (NCI/ADR-RES) | GI50 (HT-29) | GI50 (OVCAR-8) | GI50 (NCI-H522) | GI50 (A549) | GI50 (HOP-62) | GI50 (SNB-19) | GI50 (HCT-15) [µM] | GI50 (UO-31) | GI50 (MCF7) | GI50 (U-251) | GI50 (HL-60) | GI50 (MDA-N) | GI50 (SR)
CNC(=O)c1nn[nH]c1Sc1c([N+](=O)[O-])ncn1C | > 100 µM (inactive) | > 100 µM (inactive) | > 100 µM (inactive) | > 100 µM (inactive) | > 100 µM (inactive) | > 100 µM (inactive) | > 100 µM (inactive) | > 100 µM (inactive) | > 100 µM (inactive) | > 100 µM (inactive) | > 100 µM (inactive) | > 100 µM (inactive) | > 100 µM (inactive) | > 100 | > 100 µM (inactive) | > 100 µM (inactive) | > 100 µM (inactive) |  |  | 
N#Cc1c(-c2ccc([N+](=O)[O-])cc2)c(C#N)c(=O)n(NS(=O)(=O)c2ccccc2)c1S | > 100 µM (inactive) | 30.2 µM (inactive) | 40.6 µM (inactive) | 38.5 µM (inactive) | 37 µM (inactive) | 61 µM (inactive) | 50.6 µM (inactive) | 36.3 µM (inactive) | 33.2 µM (inactive) | 21.2 µM (inactive) | 39.9 µM (inactive) | > 100 µM (inactive) | 44.2 µM (inactive) | 36.9 |  | 31.4 µM (inactive) | 41.3 µM (inactive) |  |  | 
CO/C(N)=C(C#N)/N=C/c1ccc2ccccc2c1 | > 100 µM (inactive) | 4.72 µM (inactive) |  | 7.1 µM (inactive) |  |  | 13 µM (inactive) | 18.5 µM (inactive) | 72.3 µM (inactive) | > 100 µM (inactive) | 77.6 µM (inactive) | 23.2 µM (inactive) |  |  | 58.2 µM (inactive) |  | 30.8 µM (inactive) | 3.61 µM (inactive) | 8.41 µM (inactive) | 27.6 µM (inactive)
CN(C)CCNc1ncnc2nc(-c3ccccc3)c(-c3ccccc3)nc12 | > 100 µM (inactive) |  |  | > 100 µM (inactive) | > 100 µM (inactive) | > 100 µM (inactive) | > 100 µM (inactive) | > 100 µM (inactive) | > 100 µM (inactive) | > 100 µM (inactive) | > 100 µM (inactive) | > 100 µM (inactive) |  |  | > 100 µM (inactive) | 57.5 µM (inactive) | > 100 µM (inactive) | > 100 µM (inactive) | > 100 µM (inactive) | 
Cc1ccc(S(=O)(=O)OC2CN3CCC2CC3)cc1 (centres undefined) | > 100 µM (inactive) | > 100 µM (inactive) |  | > 100 µM (inactive) | > 100 µM (inactive) | > 100 µM (inactive) | > 100 µM (inactive) | > 100 µM (inactive) | > 100 µM (inactive) | > 100 µM (inactive) | > 100 µM (inactive) | > 100 µM (inactive) | > 100 µM (inactive) | > 100 | > 100 µM (inactive) | > 100 µM (inactive) | > 100 µM (inactive) | 22.6 µM (inactive) |  | > 100 µM (inactive)
O=C1CC(c2ccccc2)n2cccc21 (centres undefined) | > 100 µM (inactive) | > 100 µM (inactive) | > 100 µM (inactive) | > 100 µM (inactive) | > 100 µM (inactive) | > 100 µM (inactive) | > 100 µM (inactive) | > 100 µM (inactive) | > 100 µM (inactive) | > 100 µM (inactive) | > 100 µM (inactive) | > 100 µM (inactive) | > 100 µM (inactive) | > 100 | 67.6 µM (inactive) | > 100 µM (inactive) | > 100 µM (inactive) | 65.6 µM (inactive) |  | > 100 µM (inactive)
CN(C)c1ccc(/N=N\c2cccc3ccoc23)cc1 | 56.5 µM (inactive) | 44.8 µM (inactive) | 60.8 µM (inactive) | > 94.2 µM (inactive) | > 40.8 µM (inactive) | > 100 µM (inactive) | 43.1 µM (inactive) | 29.5 µM (inactive) | > 78 µM (inactive) | 35.4 µM (inactive) | > 71.9 µM (inactive) | > 100 µM (inactive) | > 100 µM (inactive) | 45.2 | 6.46 µM (inactive) |  | > 62.5 µM (inactive) | 23.8 µM (inactive) | > 94.4 µM (inactive) | 23.3 µM (inactive)
CCOC(=O)C[C@@]12CCCN[C@]1(C)CCc1ccccc12 | > 100 µM (inactive) | > 100 µM (inactive) | > 100 µM (inactive) |  | > 100 µM (inactive) | > 100 µM (inactive) |  | > 100 µM (inactive) | > 100 µM (inactive) | > 100 µM (inactive) | > 100 µM (inactive) | > 100 µM (inactive) | > 100 µM (inactive) | > 100 | > 100 µM (inactive) |  | > 100 µM (inactive) | > 100 µM (inactive) |  | > 100 µM (inactive)
Cn1c(=O)c2c(n(C)c1=O)n1c(=O)c3ccccc3nc1n2C | > 100 µM (inactive) | > 100 µM (inactive) | > 100 µM (inactive) | > 100 µM (inactive) | > 100 µM (inactive) | > 100 µM (inactive) | > 100 µM (inactive) | > 100 µM (inactive) | 97.9 µM (inactive) | 90.4 µM (inactive) | > 100 µM (inactive) | 39.9 µM (inactive) | > 100 µM (inactive) | > 100 | > 100 µM (inactive) | > 100 µM (inactive) | 83.6 µM (inactive) |  |  | 0.0237 µM (active)
Cc1nc2cc(Nc3ccccc3C(=O)O)ccc2s1 | > 100 µM (inactive) | > 100 µM (inactive) | > 100 µM (inactive) |  | > 100 µM (inactive) | > 100 µM (inactive) |  | > 100 µM (inactive) | > 100 µM (inactive) | 75 µM (inactive) | > 100 µM (inactive) | > 100 µM (inactive) | > 100 µM (inactive) | 63.1 | 34 µM (inactive) |  | > 100 µM (inactive) | > 100 µM (inactive) |  | > 100 µM (inactive)
O=S(=O)(c1ccccc1)N1N=C2c3ccccc3CCC[C@H]2C1c1ccccc1 (some centres undefined) | > 100 µM (inactive) | > 100 µM (inactive) | > 100 µM (inactive) |  | > 100 µM (inactive) | > 100 µM (inactive) |  | > 100 µM (inactive) | > 100 µM (inactive) | > 100 µM (inactive) | > 100 µM (inactive) | > 100 µM (inactive) | > 100 µM (inactive) | > 100 | > 60.8 µM (inactive) |  | > 100 µM (inactive) | > 100 µM (inactive) |  | 95.7 µM (inactive)
S=C1N=C(Cl)/C(=C\c2ccco2)N1 | > 100 µM (inactive) | > 100 µM (inactive) |  | > 100 µM (inactive) | > 100 µM (inactive) | > 100 µM (inactive) | > 100 µM (inactive) | > 100 µM (inactive) | > 100 µM (inactive) | 33.7 µM (inactive) | > 100 µM (inactive) | > 100 µM (inactive) | > 100 µM (inactive) | > 100 | > 100 µM (inactive) | > 100 µM (inactive) | > 100 µM (inactive) | > 70.5 µM (inactive) |  | > 79.6 µM (inactive)
Nc1nc(N)c2ncn(Cc3ccccc3)c2n1 | > 100 µM (inactive) |  | > 100 µM (inactive) | > 100 µM (inactive) | > 100 µM (inactive) | > 100 µM (inactive) | > 100 µM (inactive) | > 100 µM (inactive) | > 100 µM (inactive) | > 100 µM (inactive) | > 100 µM (inactive) | > 100 µM (inactive) | > 100 µM (inactive) | > 100 | > 100 µM (inactive) | > 100 µM (inactive) | > 100 µM (inactive) |  | > 100 µM (inactive) | 
O=C(O)CCC(NC(=O)c1ccc(Nc2nc3ccccc3nc2-c2cccs2)cc1)C(=O)O (centres undefined) | > 100 µM (inactive) | > 100 µM (inactive) | > 100 µM (inactive) |  | > 100 µM (inactive) | > 100 µM (inactive) |  | > 100 µM (inactive) | > 100 µM (inactive) | > 100 µM (inactive) | > 100 µM (inactive) | > 100 µM (inactive) | > 100 µM (inactive) | > 100 | > 100 µM (inactive) |  | > 100 µM (inactive) | > 100 µM (inactive) |  | > 100 µM (inactive)
O=C(NCc1ccccc1)c1cc2cc(O)c(O)cc2cn1 | 39.9 µM (inactive) | 12.1 µM (inactive) | 32.7 µM (inactive) |  | 16.6 µM (inactive) | 33.5 µM (inactive) |  | 26.7 µM (inactive) | 21.2 µM (inactive) | 4.69 µM (inactive) | 29 µM (inactive) | 20 µM (inactive) | 46.9 µM (inactive) | 20 | 18.1 µM (inactive) |  | 17.5 µM (inactive) | 13.5 µM (inactive) |  | 13.8 µM (inactive)
CCCC(=O)/C=C/S/C=C/C(=O)CCC | 2.51 µM (inactive) |  |  | 5.46 µM (inactive) | 3.28 µM (inactive) | 3.41 µM (inactive) | 3.18 µM (inactive) | 3.26 µM (inactive) | 2.65 µM (inactive) | 1.71 µM (inactive) | 28.3 µM (inactive) | 11.4 µM (inactive) | 21.8 µM (inactive) | 2.36 | 4.13 µM (inactive) | 28.2 µM (inactive) | 14.3 µM (inactive) |  |  | 
O=c1/c(=C/c2ccc([N+](=O)[O-])o2)sc2n1[C@@H](c1ccc(Cl)cc1)C=C(c1cc(F)c(Cl)cc1Cl)N=2 | 16.1 µM (inactive) | 13.2 µM (inactive) |  | 16.1 µM (inactive) | 14.6 µM (inactive) | 16.3 µM (inactive) | 30.8 µM (inactive) | 6.62 µM (inactive) | 4.16 µM (inactive) | 18.3 µM (inactive) | 30.3 µM (inactive) | 11.5 µM (inactive) | 15.9 µM (inactive) | 8.18 | 14.7 µM (inactive) | 13.3 µM (inactive) | 8.02 µM (inactive) | 12.3 µM (inactive) | 4.65 µM (inactive) | 
